Measurements from ChEMBL document CHEMBL1144758, “Semisynthetic studies on the manzamine alkaloids” (J Nat Prod, 2008).
≈ marks a conversion by molar mass, not a printed value. Calls of active or inactive are those of the source. The calls are words filed in the database; no cut-off is given here.

How the values were obtained:
[1] = system: Mycobacterium tuberculosis; assay: Antibacterial activity against Mycobacterium tuberculosis H37Rv by microplate alamar blue assay; format: functional; set-up: Activity: concentration or dose not given beside the values; settings: for MIC: Mycobacterium tuberculosis, H37Rv
[2] = Antiinflammatory activity in Escherichia coli lipopolysaccharide-activated rat neonatal microglia assessed as inhibition of eicosanoid thromboxane B2; format: functional, cell-based
[3] = system: Microglia; assay: Antiinflammatory activity in Escherichia coli lipopolysaccharide-activated rat neonatal microglia assessed as inhibition of oxygen radical; format: functional, cell-based
[4] = system: Mycobacterium tuberculosis; assay: Antibacterial activity against Mycobacterium tuberculosis H37Rv at 0.5 ug/mL by microplate alamar blue assay; format: functional
[5] = system: Microglia; assay: Antiinflammatory activity in Escherichia coli lipopolysaccharide-activated rat neonatal microglia assessed as inhibition of oxygen radical at 30 uM; format: functional
[6] = system: Microglia; assay: Antiinflammatory activity in Escherichia coli lipopolysaccharide-activated rat neonatal microglia assessed as inhibition of eicosanoid thromboxane B2 at 30 uM; format: functional, cell-based
[7] = system: P388; assay: Cytotoxicity against mouse P388 cells; format: functional, cell-based

Compound	Activity [1] [%]	MIC [1] [µg/mL]	IC50 [2] [nM]	Activity [3]	Activity [4] [%]	Activity [5]	Activity [6]	IC50 [7] [µg/mL]
Oc1cccc2c1[nH]c1c([C@H]3C[C@@]4(O)CCCCCCCCN5CC[C@@H]3[C@]3(C[C@@H]6CCCCCCN6[C@@H]43)C5)nccc12 [10,11,15,16,32,33-HEXAHYDRO-8-HYDROXYMANZAMINE A]	95	< 12.5	1970	inactive				
CO[C@H]1/C=C/O[C@@]2(C)Oc3c(C)c(O)c4c(O)c(c(/C=N/N5CCN(C)CC5)c(O)c4c3C2=O)NC(=O)/C(C)=C\C=C\[C@H](C)[C@H](O)[C@@H](C)[C@@H](O)[C@@H](C)[C@H](OC(C)=O)[C@@H]1C [RIFAMPIN]					100			
CC(=O)C1=C2/C=C\CCCCN2[C@H]2C3=C[C@H](c4nccc5c4[nH]c4ccccc45)[C@@H]4CCN(CCCC/C=C\CC3)C[C@]124						inactive	inactive	
O[C@]12C=C(c3nccc4c3[nH]c3ccccc34)[C@@H]3CCN(CCCC/C=C\CC1)C[C@@]31C[C@@H]3CCCCCCN3[C@H]12 [32,33-DIHYDROMANZAMINE A]	95	< 12.5				inactive	inactive	
CC(=O)C1=C2/C(C(C)=O)=C\CCCCN2[C@H]2C3=C[C@H](c4nccc5c4[nH]c4ccccc45)[C@@H]4CCN(CCCC/C=C\CC3)C[C@]124	95	< 12.5				inactive	inactive	
O[C@]12C=C(c3nccc4c3[nH]c3ccccc34)[C@@H]3CCN(CCCCCCCC1)C[C@@]31C[C@@H]3CCCCCCN3[C@H]12 [TETRAHYDROMANZAMINE A]	95	< 12.5				inactive	inactive	
CC(=O)Oc1cccc2c1[nH]c1c(C3=C[C@]4(OC(C)=O)CC/C=C\CCCCN5CC[C@H]3[C@@]3(C[C@H]6/C=C\CCCCN6[C@@H]34)C5)nccc12	95	< 12.5				inactive	inactive	
Oc1cccc2c1[nH]c1c(C3=C[C@]4(O)CC/C=C\CCCCN5CC[C@H]3[C@@]3(C[C@H]6/C=C\CCCCN6[C@@H]34)C5)nccc12 [ENT-8-HYDROXYMENZAMINE A]	95	< 12.5	250	inactive				0.25 (≈ 0.443 µM)
Oc1cccc2c1[nH]c1c(C3=C[C@]4(O)CCCCCCCCN5CC[C@H]3[C@@]3(C[C@H]6CCCCCCN6[C@@H]34)C5)nccc12	95	< 12.5				inactive	inactive	
CC(=O)O/C(C)=C1\C[C@@H](OC(C)=O)CCCN2C1=C(C(C)=O)[C@@]13CN4CCCC/C=C\CCC(=C[C@@H](c5nccc6c5[nH]c5c(OC(C)=O)cccc56)[C@H]1CC4)[C@@H]23	95	< 12.5				inactive	inactive	
Oc1cccc2c1[nH]c1c(C3=C[C@@]4(O)CCCCCCCCN5CC[C@@H]3[C@]3(C[C@@H]6CCCCCCN6[C@H]34)C5)nccc12 [15,16,32,33-TETRAHYDRO-8-HYDROXYMANZAMINE A]	95	< 12.5				inactive	inactive	
Oc1cccc2c1[nH]c1c(C3=C[C@@]4(O)CC/C=C\CCCCN5CC[C@@H]3[C@]3(CC6/C=C\CCCCN6[C@H]34)C5)nccc12 (some centres undefined)	100	< 6.25				inactive	inactive	> 20
O=C1CCCN2[C@@H](CC1)C[C@]13CN4CCCC/C=C\CC[C@](O)(C=C(c5nccc6c5[nH]c5c(O)cccc56)C1CC4)[C@H]23 (some centres undefined) [MANZAMINE F]	95	< 12.5				inactive	inactive	
Oc1cccc2c1[nH]c1c(C3=C[C@]4(O)CC/C=C\CCCCN5CC[C@H]3[C@@]3(C[C@H]6CC[C@@H](O)CCCN6[C@@H]34)C5)nccc12 [31ALPHA-HYDROXY-32,33-DIHYDRO-8-HYDROXYMANZAMINE A]	61					inactive	inactive	
O[C@@H]1CCCN2CC[C@@H]1O[C@@]13CC[C@@H](OC[C@]45CN6CCCC/C=C\CC[C@](O)(C=C(c7nccc8c7[nH]c7ccccc78)[C@@H]4CC6)[C@H]25)[C@@H](O)CCN1[C@@H]1[C@]2(CN4CCCC/C=C\CC[C@]1(O)C=C(c1nccc5c1[nH]c1ccccc15)[C@@H]2CC4)C3 [NEO-KAULUAMINE]	44							
Oc1cccc2c1[nH]c1c(C3=C[C@]4(O)CC/C=C\CCCCN5CC[C@H]3[C@@]3(C[C@H]6CC[C@H](O)CCCN6[C@@H]34)C5)nccc12 [31BETA-HYDROXY-32,33-DIHYDRO-8-HYDROXYMANZAMINE A]	100	< 6.25				inactive	inactive	
O[C@]12C=C(c3nccc4c3[nH]c3ccccc34)[C@@H]3CCN(CCCC/C=C\CC1)C[C@@]31C[C@@H]3/C=C\CCCCN3[C@H]12 [MANZAMINE A]	95	< 12.5	< 100	inactive				
CC(=O)Oc1cccc2c1[nH]c1c([C@@H]3C=C4CC/C=C\CCCCN5CC[C@H]3[C@]3(C5)C(C(C)=O)=C5/C(C(C)=O)=C\CCCCN5[C@H]43)nccc12	95	< 12.5				inactive	inactive	
CC(=O)Oc1cccc2c1[nH]c1c([C@@H]3C=C4CC/C=C\CCCCN5CC[C@H]3[C@]3(C5)C(C(C)=O)=C5/C=C\CCCCN5[C@H]43)nccc12	95	< 12.5				inactive	inactive	
